Measured values published in patent publication US12077503B2, “Substituted cyclic amides and their use as herbicides” (FMC CORPORATION, priority 2015, dated 2024).

Tests used:
Format in all cases: in vivo
[1] = tested on: barnyardgrass (Echinochloa crus-galli); assay: Test G Pre-Emergence Protocol; settings: Echinochloa crus-galli, pre-emergence, 312 h, evaluated after 13 days; for pest or weed control at 15.625 g/ha: 15.625 g ai/ha, read-out: Barnyard grass damage rating (100=total damage to plant; 0=no damage to plant); for pest or weed control at 62.5 g/ha: 62.5 g ai/ha, 100=total damage to plant, 0=no damage to plant, read-out: plant damage rating, Barnyardgrass; for pest or weed control at 250 g/ha: 250 g ai/ha, read-out: Barnyardgrass damage rating (100=total damage to plant; 0=no damage to plant)
Method in brief: (§1)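 One day after sowing, pots are treated with a spray of test compound formulated in acetone/water 50:50 plus 0.5% Tween 20, giving 15.625, 62.5 or 250 g/ha. Evaluation on a 0–100 damage scale follows 13 days of glasshouse growth.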

[2] = tested on: corn (Zea mays); assay: Test G Pre-Emergence Protocol; settings: Zea mays, pre-emergence, 312 h, evaluated after 13 days; for plant injury at 15.625 g/ha: 15.625 g ai/ha; for plant injury at 15.625 g/ha / plant injury at 250 g/ha: read-out: Corn damage rating (100=total damage to plant; 0=no damage to plant); for plant injury at 62.5 g/ha: 62.5 g ai/ha, 100=total damage to plant, 0=no damage to plant, read-out: plant damage rating, Corn; for plant injury at 250 g/ha: 250 g ai/ha
Method in brief: as §1

[3] = tested on: giant foxtail (Setaria faberi); assay: Test G Pre-Emergence Protocol; settings: Setaria faberi, pre-emergence, 312 h, evaluated after 13 days; for pest or weed control at 15.625 g/ha: 15.625 g ai/ha; for pest or weed control at 15.625 g/ha / pest or weed control at 250 g/ha: read-out: Foxtail, Giant damage rating (100=total damage to plant; 0=no damage to plant); for pest or weed control at 62.5 g/ha: 62.5 g ai/ha, 100=total damage to plant, 0=no damage to plant, read-out: plant damage rating, Foxtail, Giant; for pest or weed control at 250 g/ha: 250 g ai/ha
Method in brief: as §1

[4] = tested on: ivy-leaved morning glory (Ipomoea hederacea); assay: Test G Pre-Emergence Protocol; settings: Ipomoea, pre-emergence, 312 h, evaluated after 13 days; for pest or weed control at 15.625 g/ha: 15.625 g ai/ha, read-out: Morning-glory, Ivy-leaved damage rating (100=total damage to plant; 0=no damage to plant); for pest or weed control at 62.5 g/ha: 62.5 g ai/ha, 100=total damage to plant, 0=no damage to plant, read-out: plant damage rating, Morningglory, Ivy-leaved; for pest or weed control at 250 g/ha: 250 g ai/ha, read-out: Morningglory, Ivy-leaved damage rating (100=total damage to plant; 0=no damage to plant)
Method in brief: as §1

[5] = tested on: redroot pigweed (Amaranthus retroflexus); assay: Test G Pre-Emergence Protocol; settings: Amaranthus retroflexus, pre-emergence, 312 h, evaluated after 13 days; for pest or weed control at 15.625 g/ha: 15.625 g ai/ha; for pest or weed control at 15.625 g/ha / pest or weed control at 250 g/ha: read-out: Pigweed, Redroot damage rating (100=total damage to plant; 0=no damage to plant); for pest or weed control at 62.5 g/ha: 62.5 g ai/ha, 100=total damage to plant, 0=no damage to plant, read-out: plant damage rating, Pigweed, Redroot; for pest or weed control at 250 g/ha: 250 g ai/ha
Method in brief: as §1

[6] = tested on: velvetleaf (Abutilon theophrasti); assay: Test G Pre-Emergence Protocol; settings: Abutilon theophrasti, pre-emergence, 312 h, evaluated after 13 days; for pest or weed control at 15.625 g/ha: 15.625 g ai/ha; for pest or weed control at 15.625 g/ha / pest or weed control at 250 g/ha: read-out: Velvetleaf damage rating (100=total damage to plant; 0=no damage to plant); for pest or weed control at 62.5 g/ha: 62.5 g ai/ha, 100=total damage to plant, 0=no damage to plant, read-out: plant damage rating, Velvetleaf; for pest or weed control at 250 g/ha: 250 g ai/ha
Method in brief: as §1

[7] = tested on: barnyardgrass (Echinochloa crus-galli); assay: Test G Post-Emergence Protocol; settings: Echinochloa crus-galli, post-emergence, 312 h; for pest or weed control at 15.625 g/ha: 15.625 g ai/ha, evaluated after 13 days (100=total damage to plant; 0=no damage to plant), read-out: Barnyardgrass damage rating; for pest or weed control at 62.5 g/ha: 62.5 g ai/ha, read-out: Barnyardgrass damage rating (100=total damage to plant; 0=no damage to plant); for pest or weed control at 62.5 g/ha / pest or weed control at 250 g/ha: evaluated after 13 days; for pest or weed control at 250 g/ha: 250 g ai/ha, read-out: damage to plant, Barnyardgrass (100=total damage to plant; 0=no damage to plant)
Method in brief: (§2)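 A glasshouse post-emergence test: 8-day-old plants sprayed at 15.625, 62.5 or 250 g/ha, then grown at 24/16 °C day/night with 14 h light and 65% humidity. Damage rated 13 days later, 0–100.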

[8] = tested on: corn (Zea mays); assay: Test G Post-Emergence Protocol; settings: Zea mays, post-emergence, 312 h; for plant injury at 15.625 g/ha: 15.625 g ai/ha, evaluated after 13 days (100=total damage to plant; 0=no damage to plant), read-out: Corn damage rating; for plant injury at 62.5 g/ha: 62.5 g ai/ha, read-out: Corn damage rating (100=total damage to plant; 0=no damage to plant); for plant injury at 62.5 g/ha / plant injury at 250 g/ha: evaluated after 13 days; for plant injury at 250 g/ha: 250 g ai/ha, read-out: damage to plant, Corn (100=total damage to plant; 0=no damage to plant)
Method in brief: as §2

[9] = tested on: giant foxtail (Setaria faberi); assay: Test G Post-Emergence Protocol; settings: Setaria faberi, post-emergence, 312 h; for pest or weed control at 15.625 g/ha: 15.625 g ai/ha, evaluated after 13 days (100=total damage to plant; 0=no damage to plant), read-out: Foxtail, Giant damage rating; for pest or weed control at 62.5 g/ha: 62.5 g ai/ha, read-out: Foxtail, Giant damage rating (100=total damage to plant; 0=no damage to plant); for pest or weed control at 62.5 g/ha / pest or weed control at 250 g/ha: evaluated after 13 days; for pest or weed control at 250 g/ha: 250 g ai/ha, read-out: damage to plant, Foxtail, Giant (100=total damage to plant; 0=no damage to plant)
Method in brief: as §2

[10] = tested on: ivy-leaved morning glory (Ipomoea hederacea); assay: Test G Post-Emergence Protocol; settings: Ipomoea, post-emergence, 312 h; for pest or weed control at 15.625 g/ha: 15.625 g ai/ha, evaluated after 13 days (100=total damage to plant; 0=no damage to plant), read-out: Morningglory, Ivy-leaved damage rating; for pest or weed control at 62.5 g/ha: 62.5 g ai/ha, read-out: Morningglory, Ivy-leaved damage rating (100=total damage to plant; 0=no damage to plant); for pest or weed control at 62.5 g/ha / pest or weed control at 250 g/ha: evaluated after 13 days; for pest or weed control at 250 g/ha: 250 g ai/ha, read-out: damage to plant, Morningglory, Ivy-leaved (100=total damage to plant; 0=no damage to plant)
Method in brief: as §2

[11] = tested on: redroot pigweed (Amaranthus retroflexus); assay: Test G Post-Emergence Protocol; settings: Amaranthus retroflexus, post-emergence, 312 h; for pest or weed control at 15.625 g/ha: 15.625 g ai/ha, evaluated after 13 days (100=total damage to plant; 0=no damage to plant), read-out: Pigweed, Redroot damage rating; for pest or weed control at 62.5 g/ha: 62.5 g ai/ha, read-out: Pigweed, Redroot damage rating (100=total damage to plant; 0=no damage to plant); for pest or weed control at 62.5 g/ha / pest or weed control at 250 g/ha: evaluated after 13 days; for pest or weed control at 250 g/ha: 250 g ai/ha, read-out: damage to plant, Pigweed, Redroot (100=total damage to plant; 0=no damage to plant)
Method in brief: as §2

[12] = tested on: velvetleaf (Abutilon theophrasti); assay: Test G Post-Emergence Protocol; settings: Abutilon theophrasti, post-emergence, 312 h; for pest or weed control at 15.625 g/ha: 15.625 g ai/ha, evaluated after 13 days (100=total damage to plant; 0=no damage to plant), read-out: Velvetleaf damage rating; for pest or weed control at 62.5 g/ha: 62.5 g ai/ha, read-out: Velvetleaf damage rating (100=total damage to plant; 0=no damage to plant); for pest or weed control at 62.5 g/ha / pest or weed control at 250 g/ha: evaluated after 13 days; for pest or weed control at 250 g/ha: 250 g ai/ha, read-out: damage to plant, Velvetleaf (100=total damage to plant; 0=no damage to plant)
Method in brief: as §2

Row | Compound | pest or weed control at 15.625 g/ha [1] | pest or weed control at 62.5 g/ha [1] | pest or weed control at 250 g/ha [1] | plant injury at 15.625 g/ha [2] | plant injury at 62.5 g/ha [2] | plant injury at 250 g/ha [2] | pest or weed control at 15.625 g/ha [3] | pest or weed control at 62.5 g/ha [3] | pest or weed control at 250 g/ha [3] | pest or weed control at 15.625 g/ha [4] | pest or weed control at 62.5 g/ha [4] | pest or weed control at 250 g/ha [4] | pest or weed control at 15.625 g/ha [5] | pest or weed control at 62.5 g/ha [5] | pest or weed control at 250 g/ha [5] | pest or weed control at 15.625 g/ha [6] | pest or weed control at 62.5 g/ha [6] | pest or weed control at 250 g/ha [6] | pest or weed control at 15.625 g/ha [7] | pest or weed control at 62.5 g/ha [7] | other results
1 | CN1C[C@@H](c2cncc(Cl)c2)[C@H](C(=O)Nc2cccc(F)c2F)C1=O (racemic) [Compound 1461] | 0% | 60% | 90% | 0% | 0% | 0% | 30% | 80% | 90% | 0% | 0% | 0% | 0% | 0% | 0% | 0% | 0% | 0% | 0% | 30% | pest or weed control at 250 g/ha [7]: 50%; plant injury at 15.625 g/ha [8]: 10%; plant injury at 62.5 g/ha [8]: 0%; plant injury at 250 g/ha [8]: 0%; pest or weed control at 15.625 g/ha [9]: 20%; pest or weed control at 62.5 g/ha [9]: 70%; pest or weed control at 250 g/ha [9]: 70%; pest or weed control at 15.625 g/ha [10]: 0%; pest or weed control at 62.5 g/ha [10]: 0%; pest or weed control at 250 g/ha [10]: 0%; pest or weed control at 15.625 g/ha [11]: 0%; pest or weed control at 62.5 g/ha [11]: 0%; pest or weed control at 250 g/ha [11]: 0%; pest or weed control at 15.625 g/ha [12]: 0%; pest or weed control at 62.5 g/ha [12]: 0%; pest or weed control at 250 g/ha [12]: 0%
2 | CN1C[C@@H](c2ccc(C(F)(F)F)cc2)[C@H](C(=O)Nc2cccc(F)c2)C1=O (racemic) [Compound 1623] | 10% | 30% | 60% | 10% | 0% | 10% | 20% | 60% | 80% | 10% | 10% | 10% | 10% | 10% | 50% | 10% | 0% | 50% | 10% | 70% | pest or weed control at 250 g/ha [7]: 80%; plant injury at 15.625 g/ha [8]: 0%; plant injury at 62.5 g/ha [8]: 0%; plant injury at 250 g/ha [8]: 30%; pest or weed control at 15.625 g/ha [9]: 30%; pest or weed control at 62.5 g/ha [9]: 70%; pest or weed control at 250 g/ha [9]: 80%; pest or weed control at 15.625 g/ha [10]: 30%; pest or weed control at 62.5 g/ha [10]: 30%; pest or weed control at 250 g/ha [10]: 60%; pest or weed control at 15.625 g/ha [11]: 10%; pest or weed control at 62.5 g/ha [11]: 20%; pest or weed control at 250 g/ha [11]: 60%; pest or weed control at 15.625 g/ha [12]: 0%; pest or weed control at 62.5 g/ha [12]: 0%; pest or weed control at 250 g/ha [12]: 20%
3 | Cc1cnc(NC(=O)[C@@H]2C(=O)N(C)C[C@H]2c2ccc(C(F)(F)F)cc2)cn1 (racemic) [Compound 1648] | 0% | 0% | 0% | 0% | 0% | 0% | 0% | 0% | 0% | 0% | 0% | 0% | 0% | 0% | 0% | 0% | 0% | 0% | 0% | 0% | pest or weed control at 250 g/ha [7]: 0%; plant injury at 15.625 g/ha [8]: 0%; plant injury at 62.5 g/ha [8]: 0%; plant injury at 250 g/ha [8]: 0%; pest or weed control at 15.625 g/ha [9]: 0%; pest or weed control at 62.5 g/ha [9]: 0%; pest or weed control at 250 g/ha [9]: 0%; pest or weed control at 15.625 g/ha [10]: 0%; pest or weed control at 62.5 g/ha [10]: 0%; pest or weed control at 250 g/ha [10]: 0%; pest or weed control at 15.625 g/ha [11]: 0%; pest or weed control at 62.5 g/ha [11]: 0%; pest or weed control at 250 g/ha [11]: 0%; pest or weed control at 15.625 g/ha [12]: 0%; pest or weed control at 62.5 g/ha [12]: 0%; pest or weed control at 250 g/ha [12]: 0%
